# Measured values: ChEMBL document CHEMBL3885881, “DrugMatrix”
# Species on record: Rattus norvegicus
# Assay: DrugMatrix - Regimen: Daily Repeat
# Format: toxicity, organism-based, Sprague-Dawley
# Set-up: regimen Daily Repeat, gender Male, age 6-8 weeks
# Settings: in vivo, po, route oral GAVAGE, vehicle 100 % WATER; for ABSOLUTE BASOPHIL / ABSOLUTE EOSINOPHIL / ABSOLUTE LYMPHOCYTE / ABSOLUTE MONOCYTE / ABSOLUTE SEGMENTED NEUTROPHIL / BASOPHIL / EOSINOPHIL / ERYTHROCYTE COUNT / HEMATOCRIT / HEMOGLOBIN / LEUKOCYTE COUNT / LYMPHOCYTE / MEAN CORPUSCULAR HEMOGLOBIN / MEAN CORPUSCULAR HEMOGLOBIN CONCENTRATION / MEAN CORPUSCULAR VOLUME / MONOCYTE / NEUTROPHIL / NUCLEATED RED BLOOD CELLS / PLATELET COUNT: tissue Blood; for ALANINE AMINOTRANSFERASE / ALBUMIN / ALKALINE PHOSPHATASE / ASPARTATE AMINOTRANSFERASE / BLOOD UREA NITROGEN / CARBON DIOXIDE / CHLORIDE / CHOLESTEROL / CREATINE PHOSPHOKINASE / CREATININE / GLUCOSE / LACTATE DEHYDROGENASE / LIPASE / PHOSPHORUS / POTASSIUM / SODIUM / TOTAL BILIRUBIN / TOTAL PROTEIN / URIC ACID: tissue Plasma
# [1] = 27 mg/kg, 72 h, dose level High, time 3 day
# [2] = 27 mg/kg, 120 h, dose level High, time 5 day
# [3] = […], 72 h, dose 2.7 mg/Kg, dose level Low, time 3 day
# [4] = […], 120 h, dose 2.7 mg/Kg, dose level Low, time 5 day
structure (smiles),measurement,setting,value
NNCCc1ccccc1 [PHENELZINE],ABSOLUTE BASOPHIL,[1],0 CELLS/uL
same,ABSOLUTE EOSINOPHIL,[1],54.67 CELLS/uL
same,ABSOLUTE LYMPHOCYTE,[1],7424 CELLS/uL
same,ABSOLUTE MONOCYTE,[1],106.67 CELLS/uL
same,ABSOLUTE SEGMENTED NEUTROPHIL,[1],481.33 CELLS/uL
same,BASOPHIL,[1],0%
same,EOSINOPHIL,[1],0.67%
same,ERYTHROCYTE COUNT,[1],5.49 x10E6/uL
same,HEMATOCRIT,[1],35.1%
same,HEMOGLOBIN,[1],14.03 G/DL
same,LEUKOCYTE COUNT,[1],8.07 x10E3/uL
same,LYMPHOCYTE,[1],92%
same,MEAN CORPUSCULAR HEMOGLOBIN,[1],25.57 pg
same,MEAN CORPUSCULAR HEMOGLOBIN CONCENTRATION,[1],39.97 G/DL
same,MEAN CORPUSCULAR VOLUME,[1],63.93 fL
same,MONOCYTE,[1],1.33%
same,NEUTROPHIL,[1],6%
same,NUCLEATED RED BLOOD CELLS,[1],0 /100WBC
same,PLATELET COUNT,[1],1341.67 x10E3/uL
same,ALANINE AMINOTRANSFERASE,[1],25.67 u/L
same,ALBUMIN,[1],4.5 G/DL
same,ALKALINE PHOSPHATASE,[1],356.33 u/L
same,ASPARTATE AMINOTRANSFERASE,[1],75.67 u/L
same,BLOOD UREA NITROGEN,[1],16.67 mg/dL
same,CARBON DIOXIDE,[1],31 mmol/L
same,CHLORIDE,[1],102.33 MEQ/L
same,CHOLESTEROL,[1],78.33 mg/dL
same,CREATINE PHOSPHOKINASE,[1],265 u/L
same,CREATININE,[1],0.16 mg/dL
same,GLUCOSE,[1],143 mg/dL
same,LACTATE DEHYDROGENASE,[1],131.33 u/L
same,LIPASE,[1],9.33 u/L
same,PHOSPHORUS,[1],11.73 mg/dL
same,POTASSIUM,[1],6.74 MEQ/L
same,SODIUM,[1],145.43 MEQ/L
same,TOTAL BILIRUBIN,[1],0.23 mg/dL
same,TOTAL PROTEIN,[1],6.07 G/DL
same,URIC ACID,[1],1.23 mg/dL
same,ABSOLUTE BASOPHIL,[2],0 CELLS/uL
same,ABSOLUTE EOSINOPHIL,[2],69.33 CELLS/uL
same,ABSOLUTE LYMPHOCYTE,[2],8987.33 CELLS/uL
same,ABSOLUTE MONOCYTE,[2],88.33 CELLS/uL
same,ABSOLUTE SEGMENTED NEUTROPHIL,[2],388.33 CELLS/uL
same,BASOPHIL,[2],0%
same,EOSINOPHIL,[2],0.67%
same,ERYTHROCYTE COUNT,[2],6.17 x10E6/uL
same,HEMATOCRIT,[2],39.07%
same,HEMOGLOBIN,[2],15.3 G/DL
same,LEUKOCYTE COUNT,[2],9.53 x10E3/uL
same,LYMPHOCYTE,[2],94.33%
same,MEAN CORPUSCULAR HEMOGLOBIN,[2],24.8 pg
same,MEAN CORPUSCULAR HEMOGLOBIN CONCENTRATION,[2],39.17 G/DL
same,MEAN CORPUSCULAR VOLUME,[2],63.33 fL
same,MONOCYTE,[2],1%
same,NEUTROPHIL,[2],4%
same,NUCLEATED RED BLOOD CELLS,[2],0 /100WBC
same,PLATELET COUNT,[2],1357.33 x10E3/uL
same,ALANINE AMINOTRANSFERASE,[2],18.67 u/L
same,ALBUMIN,[2],4.37 G/DL
same,ALKALINE PHOSPHATASE,[2],271 u/L
same,ASPARTATE AMINOTRANSFERASE,[2],103.33 u/L
same,BLOOD UREA NITROGEN,[2],26 mg/dL
same,CARBON DIOXIDE,[2],23 mmol/L
same,CHLORIDE,[2],110 MEQ/L
same,CHOLESTEROL,[2],68.33 mg/dL
same,CREATINE PHOSPHOKINASE,[2],320.33 u/L
same,CREATININE,[2],0.2 mg/dL
same,GLUCOSE,[2],155 mg/dL
same,LACTATE DEHYDROGENASE,[2],594.67 u/L
same,LIPASE,[2],10 u/L
same,PHOSPHORUS,[2],11.2 mg/dL
same,POTASSIUM,[2],5.16 MEQ/L
same,SODIUM,[2],150.7 MEQ/L
same,TOTAL BILIRUBIN,[2],0.17 mg/dL
same,TOTAL PROTEIN,[2],6 G/DL
same,URIC ACID,[2],1.43 mg/dL
same,ABSOLUTE BASOPHIL,[3],0 CELLS/uL
same,ABSOLUTE EOSINOPHIL,[3],60.67 CELLS/uL
same,ABSOLUTE LYMPHOCYTE,[3],9104.67 CELLS/uL
same,ABSOLUTE MONOCYTE,[3],151.67 CELLS/uL
same,ABSOLUTE SEGMENTED NEUTROPHIL,[3],949.67 CELLS/uL
same,BASOPHIL,[3],0%
same,EOSINOPHIL,[3],0.67%
same,ERYTHROCYTE COUNT,[3],5.11 x10E6/uL
same,HEMATOCRIT,[3],32.4%
same,HEMOGLOBIN,[3],12.97 G/DL
same,LEUKOCYTE COUNT,[3],10.27 x10E3/uL
same,LYMPHOCYTE,[3],88%
same,MEAN CORPUSCULAR HEMOGLOBIN,[3],25.37 pg
same,MEAN CORPUSCULAR HEMOGLOBIN CONCENTRATION,[3],40.03 G/DL
same,MEAN CORPUSCULAR VOLUME,[3],63.37 fL
same,MONOCYTE,[3],1.67%
same,NEUTROPHIL,[3],9.67%
same,NUCLEATED RED BLOOD CELLS,[3],0 /100WBC
same,PLATELET COUNT,[3],935.33 x10E3/uL
same,ALANINE AMINOTRANSFERASE,[3],55.33 u/L
same,ALBUMIN,[3],4.33 G/DL
same,ALKALINE PHOSPHATASE,[3],325.33 u/L
same,ASPARTATE AMINOTRANSFERASE,[3],98 u/L
same,BLOOD UREA NITROGEN,[3],15.33 mg/dL
same,CARBON DIOXIDE,[3],33 mmol/L
same,CHLORIDE,[3],101.67 MEQ/L
same,CHOLESTEROL,[3],78.33 mg/dL
same,CREATINE PHOSPHOKINASE,[3],665.67 u/L
same,CREATININE,[3],0.17 mg/dL
same,GLUCOSE,[3],155 mg/dL
same,LACTATE DEHYDROGENASE,[3],181.67 u/L
same,LIPASE,[3],9 u/L
same,PHOSPHORUS,[3],12.03 mg/dL
same,POTASSIUM,[3],6.23 MEQ/L
same,SODIUM,[3],144.83 MEQ/L
same,TOTAL BILIRUBIN,[3],0.17 mg/dL
same,TOTAL PROTEIN,[3],5.93 G/DL
same,URIC ACID,[3],1.23 mg/dL
same,ABSOLUTE BASOPHIL,[4],0 CELLS/uL
same,ABSOLUTE EOSINOPHIL,[4],42 CELLS/uL
same,ABSOLUTE LYMPHOCYTE,[4],10324 CELLS/uL
same,ABSOLUTE MONOCYTE,[4],37 CELLS/uL
same,ABSOLUTE SEGMENTED NEUTROPHIL,[4],997 CELLS/uL
same,BASOPHIL,[4],0%
same,EOSINOPHIL,[4],0.33%
same,ERYTHROCYTE COUNT,[4],5.61 x10E6/uL
same,HEMATOCRIT,[4],36.03%
same,HEMOGLOBIN,[4],14.1 G/DL
same,LEUKOCYTE COUNT,[4],11.4 x10E3/uL
same,LYMPHOCYTE,[4],90.67%
same,MEAN CORPUSCULAR HEMOGLOBIN,[4],25.13 pg
same,MEAN CORPUSCULAR HEMOGLOBIN CONCENTRATION,[4],39.2 G/DL
same,MEAN CORPUSCULAR VOLUME,[4],64.23 fL
same,MONOCYTE,[4],0.33%
same,NEUTROPHIL,[4],8.67%
same,NUCLEATED RED BLOOD CELLS,[4],0 /100WBC
same,PLATELET COUNT,[4],1075 x10E3/uL
same,ALANINE AMINOTRANSFERASE,[4],41.33 u/L
same,ALBUMIN,[4],4.57 G/DL
same,ALKALINE PHOSPHATASE,[4],403 u/L
same,ASPARTATE AMINOTRANSFERASE,[4],105.67 u/L
same,BLOOD UREA NITROGEN,[4],21.67 mg/dL
same,CARBON DIOXIDE,[4],25.67 mmol/L
same,CHLORIDE,[4],101.67 MEQ/L
same,CHOLESTEROL,[4],67 mg/dL
same,CREATINE PHOSPHOKINASE,[4],480.33 u/L
same,CREATININE,[4],0.33 mg/dL
same,GLUCOSE,[4],130.33 mg/dL
same,LACTATE DEHYDROGENASE,[4],623.33 u/L
same,LIPASE,[4],11.33 u/L
same,PHOSPHORUS,[4],12.7 mg/dL
same,POTASSIUM,[4],6.78 MEQ/L
same,SODIUM,[4],142.87 MEQ/L
same,TOTAL BILIRUBIN,[4],0.27 mg/dL
same,TOTAL PROTEIN,[4],6.3 G/DL
same,URIC ACID,[4],1.63 mg/dL
